In patent publication US8962842B2, “2-pyridone antimicrobial compositions” (priority 2010, dated 2015):
Like-named read-outs stand apart in the source and are kept apart here.

Columns and labels:
[1] = tested on: Pseudomonas aeruginosa (12 strains); assay: MIC range, broader panel of Quotient Bioresearch strains (Table 4); type: cell-based
[2] = tested on: Acinetobacter baumannii, quinolone-resistant strains (Quotient Bioresearch catalogue); assay: MIC against pathogens resistant against quinolones (Table 5); type: cell-based; settings: Acinetobacter baumannii, GN54
[3] = tested on: Enterococcus faecalis (5 strains); assay: MIC range, broader panel of Quotient Bioresearch strains (Table 3)
[4] = tested on: Streptococcus pneumonia (5 strains); assay: as above; settings: Streptococcus pneumoniae
[5] = tested on: Group C Streptococcus (4 strains); assay: as above
[6] = tested on: Acinetobacter baumannii (12 strains); assay: MIC range, broader panel of Quotient Bioresearch strains (Table 4); type: cell-based
human topoisomerase I = biological target: T1, human topoisomerase I (Homo sapiens, UniProt P11387); assay: Inhibition of topoisomerases activity in vitro, Topogen protocol TG1015 (Table 7); type: biochemical; settings: read-out: IC50 hTopo I Assay
T1 construct: purchased Topogen Inc., Port Orange, USA TG1015
T1 sequence (P11387 1-765): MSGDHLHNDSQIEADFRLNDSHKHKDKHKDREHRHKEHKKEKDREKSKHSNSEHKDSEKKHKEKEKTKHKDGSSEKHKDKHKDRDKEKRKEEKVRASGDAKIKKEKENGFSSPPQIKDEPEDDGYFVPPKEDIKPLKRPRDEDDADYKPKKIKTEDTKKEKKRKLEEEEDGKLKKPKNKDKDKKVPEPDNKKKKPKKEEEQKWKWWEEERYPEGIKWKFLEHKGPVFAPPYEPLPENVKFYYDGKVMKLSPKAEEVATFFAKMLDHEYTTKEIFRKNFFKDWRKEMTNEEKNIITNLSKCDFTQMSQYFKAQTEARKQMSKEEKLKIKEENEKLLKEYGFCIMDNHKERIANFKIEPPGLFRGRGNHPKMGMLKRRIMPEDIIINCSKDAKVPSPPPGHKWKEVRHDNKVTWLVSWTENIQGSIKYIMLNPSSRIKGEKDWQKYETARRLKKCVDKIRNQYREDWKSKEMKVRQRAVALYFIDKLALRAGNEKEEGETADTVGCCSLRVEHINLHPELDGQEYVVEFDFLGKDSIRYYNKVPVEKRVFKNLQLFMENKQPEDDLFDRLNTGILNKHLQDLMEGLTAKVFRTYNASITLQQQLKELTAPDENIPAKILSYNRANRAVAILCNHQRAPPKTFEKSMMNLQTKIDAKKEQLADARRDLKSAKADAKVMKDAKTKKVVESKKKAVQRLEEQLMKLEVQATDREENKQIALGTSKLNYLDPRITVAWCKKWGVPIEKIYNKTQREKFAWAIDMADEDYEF

[7] = tested on: Staphylococcus aureus (16 strains); assay: MIC range, broader panel of Quotient Bioresearch strains (Table 3)
[8] = tested on: Bacterial strains injected into thigh muscles; type: in vivo, mice; settings: 30 mg/kg TDS p.o.
bacterial gyrase = bacterial gyrase (Escherichia coli, UniProt P0AES4+P0AES6); assay: Inhibition of topoisomerases activity in vitro, Topogen protocol TG1003 (Table 7); type: biochemical
[9] = tested on: Enterococcus faecium (3 strains); assay: MIC range, broader panel of Quotient Bioresearch strains (Table 3)
[10] = tested on: Escherichia coli (6 strains); assay: MIC range, broader panel of Quotient Bioresearch strains (Table 4); type: cell-based
[11] = Metabolic stability in liver microsomes +/- S9 fraction (Table 8); type: in vitro ADME; settings: 1 μM
Description: Metabolic stability of a select number of examples was tested in liver microsomes+/−addition of S9 fraction as described by Kuhnz, W. and Gieschen, H. (1998), Drug Metab. Dispos., 1120-1127. Test concentration was 1 μM and HPLC/MS-MS was used for detection.

[12] = tested on: Streptococcus pyogenes (4 strains); assay: MIC range, broader panel of Quotient Bioresearch strains (Table 3)
[13] = tested on: Klebsiella pneumonia (4 strains); assay: MIC range, broader panel of Quotient Bioresearch strains (Table 4); type: cell-based; settings: Klebsiella pneumoniae
[14] = tested on: Staphylococcus aureus, quinolone-resistant strains (Quotient Bioresearch catalogue); assay: MIC against pathogens resistant against quinolones (Table 5); settings: strain GP82, Staphylococcus aureus levofloxacin-resistant clinical isolate, amino acid changes GrlA, GrlB & GyrA
[15] = tested on: Burkholderia cepacia (5 strains); assay: MIC range, broader panel of Quotient Bioresearch strains (Table 4); type: cell-based
physchem = type: physicochemical; settings: thermodynamic from solid
Description: The solutions were incubated at room temperature for 24 hours before quantification by HPLC detection. Aqueous solubility was evaluated in simulated gastric fluid (SGF), simulated intestinal fluid (SIF) and phosphate buffer saline (PBS) pH 7.4. Aqueous solubility is expressed in Table 11 as mean solubility in μM.

bacterial gyrase, sequence (P0AES4 whole entry, one chain of several): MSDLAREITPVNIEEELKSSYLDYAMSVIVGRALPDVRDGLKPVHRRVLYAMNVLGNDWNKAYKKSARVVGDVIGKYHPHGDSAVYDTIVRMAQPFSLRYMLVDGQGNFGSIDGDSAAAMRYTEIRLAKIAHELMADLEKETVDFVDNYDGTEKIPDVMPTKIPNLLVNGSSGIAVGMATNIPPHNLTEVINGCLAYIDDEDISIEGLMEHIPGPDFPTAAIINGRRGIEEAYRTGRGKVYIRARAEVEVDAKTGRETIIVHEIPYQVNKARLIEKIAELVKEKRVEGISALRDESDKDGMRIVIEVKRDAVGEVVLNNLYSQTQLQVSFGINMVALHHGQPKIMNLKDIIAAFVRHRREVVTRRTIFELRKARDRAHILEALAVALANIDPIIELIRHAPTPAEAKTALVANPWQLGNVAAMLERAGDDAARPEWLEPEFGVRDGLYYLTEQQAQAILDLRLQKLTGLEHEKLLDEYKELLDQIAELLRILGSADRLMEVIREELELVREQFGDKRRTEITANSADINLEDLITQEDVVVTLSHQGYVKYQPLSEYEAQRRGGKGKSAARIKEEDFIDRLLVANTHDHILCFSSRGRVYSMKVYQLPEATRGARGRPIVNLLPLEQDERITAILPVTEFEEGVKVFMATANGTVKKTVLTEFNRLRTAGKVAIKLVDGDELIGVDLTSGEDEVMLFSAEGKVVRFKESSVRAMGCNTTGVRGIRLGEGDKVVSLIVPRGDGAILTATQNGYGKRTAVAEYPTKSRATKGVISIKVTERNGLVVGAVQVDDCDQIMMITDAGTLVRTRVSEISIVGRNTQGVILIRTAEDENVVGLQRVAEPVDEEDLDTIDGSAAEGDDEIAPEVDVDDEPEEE

## Cc1c(-c2ccc3[nH]ncc3c2)ccn2c(=O)c(C(=O)[O-])cc(C3CC3)c12.[K+] [Example 23 K salt, potassium 1-cyclopropyl-8-(1H-indazol-5-yl)-9-methyl-4-oxo-4H-quinolizine-3-carboxylate]
[1]; read-out: MIC Range High, Pseudomonas aeruginosa (12 strains)
  MIC: 16 µg/mL
[1]; read-out: MIC Range Low, Pseudomonas aeruginosa (12 strains)
  MIC: 0.25 µg/mL
[1]; read-out: MIC Range Median, Pseudomonas aeruginosa (12 strains)
  MIC50: 2 µg/mL
[2]
  MIC: 1 µg/mL
[3]; read-out: MIC Range Low, Enterococcus faecalis (5 strains)
  MIC: ≤ 0.015 µg/mL
[3]; read-out: MIC Range Median, Enterococcus faecalis (5 strains)
  MIC50: ≤ 0.015 µg/mL
[4]; read-out: MIC Range Low, Streptococcus pneumonia (5 strains)
  MIC: ≤ 0.015 µg/mL
[4]; read-out: MIC Range Median, Streptococcus pneumonia (5 strains)
  MIC50: 0.03 µg/mL
[5]; read-out: MIC Range High, Group C Streptococcus (4 strains)
  MIC: 0.03 µg/mL
[5]; read-out: MIC Range Low, Group C Streptococcus (4 strains)
  MIC: ≤ 0.015 µg/mL
[5]; read-out: MIC Range Median, Group C Streptococcus (4 strains)
  MIC50: ≤ 0.015 µg/mL
[6]; read-out: MIC Range High, Acinetobacter baumannii (12 strains)
  MIC: 8 µg/mL
[6]; read-out: MIC Range Low, Acinetobacter baumannii (12 strains)
  MIC: 0.03 µg/mL
[6]; read-out: MIC Range Median, Acinetobacter baumannii (12 strains)
  MIC50: 3 µg/mL
Human topoisomerase I
  IC50: > 140 µM
[7]; read-out: MIC Range High, Staphylococcus aureus (16 strains)
  MIC: 0.12 µg/mL
[7]; read-out: MIC Range Median, Staphylococcus aureus (16 strains)
  MIC50: 0.03 µg/mL
[8]; E. coli ATCC 25922, mouse thigh
  Log reduction (LgR) from vehicle control (CFU/g): 2.82
[8]; MRSA ATCC 43300, mouse thigh
  Log reduction (LgR) from vehicle control (CFU/g): 4.66
Bacterial gyrase
  IC50: ≤ 1390 nM
[9]; read-out: MIC Range Low, Enterococcus faecium (3 strains)
  MIC: 0.06 µg/mL
[9]; read-out: MIC Range Median, Enterococcus faecium (3 strains)
  MIC50: 0.25 µg/mL
[10]; read-out: MIC Range High, Escherichia coli (6 strains)
  MIC: 16 µg/mL
[10]; read-out: MIC Range Low, Escherichia coli (6 strains)
  MIC: ≤ 0.015 µg/mL
[10]; read-out: MIC Range Median, Escherichia coli (6 strains)
  MIC50: 4 µg/mL
[11]; Liver microsomes + S9, human
  Mean Parent Remaining: 80%
[11]; Liver microsomes + S9, mouse
  Mean Parent Remaining: 2%
[11]; Liver microsomes, human
  Mean Parent Remaining: 67%
[11]; Liver microsomes, mouse
  Mean Parent Remaining: 2%
[12]; read-out: MIC Range High, Streptococcus pyogenes (4 strains)
  MIC: 0.03 µg/mL
[12]; read-out: MIC Range Low, Streptococcus pyogenes (4 strains)
  MIC: ≤ 0.015 µg/mL
[12]; read-out: MIC Range Median, Streptococcus pyogenes (4 strains)
  MIC50: 0.03 µg/mL
[13]; read-out: MIC Range High, Klebsiella pneumonia (4 strains)
  MIC: 16 µg/mL
[13]; read-out: MIC Range Low, Klebsiella pneumonia (4 strains)
  MIC: 0.06 µg/mL
[13]; read-out: MIC Range Median, Klebsiella pneumonia (4 strains)
  MIC50: 5 µg/mL
[14]
  MIC: ≤ 0.015 µg/mL
[15]; read-out: MIC Range High, Burkholderia cepacia (5 strains)
  MIC: 0.25 µg/mL
[15]; read-out: MIC Range Low, Burkholderia cepacia (5 strains)
  MIC: ≤ 0.015 µg/mL
[15]; read-out: MIC Range Median, Burkholderia cepacia (5 strains)
  MIC50: 0.06 µg/mL
physchem; fassgf or other biorelevant
  solubility at 24 h: 105 µM
physchem; pH 7.4, aqueous buffer
  solubility at 24 h: 37 µM
physchem; simulated gastric fluid
  solubility at 24 h: 8 µM
